The nature of series [1]: Test Example 9: Metabolism stability test. Type of series: in vitro ADME. The conditions noted are these: human liver microsomes 0.5 mg protein/mL, 30 minutes at 37° C., NADPH, compound concentration 0.5 μmol/L. The protocol: Metabolism Stability Test
Using a commercially available pooled human hepatic microsomes, a compound of the present invention was reacted for a constant time, a remaining rate was calculated by comparing a reacted sample and an unreacted sample, thereby, a degree of metabolism in liver was assessed.
A reaction was performed (oxidative reaction) at 37° C. for 0 minute or 30 minutes in the presence of 1 mmol/L NADPH in 0.2 mL of a buffer (50 mmol/L Tris-HCl pH 7.4, 150 mmol/L potassium chloride, 10 mmol/L magnesium chloride) containing 0.5 mg protein/mL of human liver microsomes. After the reaction, 50 μL of the reaction mixture was added to 100 μL of a methanol/acetonitrile=1/1 (v/v), mixed and centrifuged at 3000 rpm for 15 minutes. The compound of the present invention in the supernatant was quantified by LC/MS/MS, and a remaining amount of the compound of the present invention after the reaction was calculated, letting a compound amount at 0 minute reaction time to be 100%. Hydrolysis reaction was performed in the absence of NADPH and glucuronidation reaction was in the presence of 5 mmol/L UDP-glucuronic acid in place of NADPH, followed by similar operations.
(Results) Compound concentration: 0.5 μmol/L

Series [2] deals with T1, human TRPV4 (hTRPV4/CHO cells) (Homo sapiens, UniProt Q9HBA0).
T1 construct: expressed in transfected cells; host or cells: CHO-K1
As to the kind of experiment: Test Example 4: TRPV4 inhibitory activity (Ki value), 4α-PDD stimulation, Fluo-3 calcium fluorescence (FDSS 3000). Type of series: cell-based. To be noted: Test Example 4, 4α-PDD stimulation, read-out: Test 4 Ki. Summed up: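 hTRPV4/CHO-K1 cells loaded with 5 μmol/L Fluo-3 in HBSS/HEPES pH 7.5 with probenecid; compound (10 μmol/L to 0.5 nmol/L final, 10 points) added before 4α-PDD, fluorescence read 8 min at Ex 480/Em 540 nm. Max−Min signal normalised to 10 μM Ruthenium Red (100%) and no compound (0%); IC50 converted to Ki using 4α-PDD EC50.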

The nature of series [3]: Test Example 8: Solubility test. Type of series: physicochemical. To be noted: fassgf or other biorelevant, kinetic from dmso stock; 1% DMSO addition, artificial intestinal juice pH 6.8, 16 hours at 25° C. As for the experimental part:
The solubility of a compound of the present invention was determined under 1% DMSO addition conditions. A 10 mmol/L solution of the compound was prepared with DMSO, and 6 μL of the solution of the compound of the present invention was added to 594 μL of an artificial intestinal juice (water and 118 mL of 0.2 mol/L NaOH reagent were added to 250 mL of 0.2 mol/L potassium dihydrogen phosphate reagent to reach 1000 mL) with a pH of 6.8. The mixture was left standing for 16 hours at 25° C., and the mixture was vacuum-filtered. The filtrate was two-fold diluted with methanol/water=1/1 (V/V), and the compound concentration in the filtrate was measured with HPLC or LC/MS/MS by the absolute calibration method.

T1 sequence (Q9HBA0 whole entry): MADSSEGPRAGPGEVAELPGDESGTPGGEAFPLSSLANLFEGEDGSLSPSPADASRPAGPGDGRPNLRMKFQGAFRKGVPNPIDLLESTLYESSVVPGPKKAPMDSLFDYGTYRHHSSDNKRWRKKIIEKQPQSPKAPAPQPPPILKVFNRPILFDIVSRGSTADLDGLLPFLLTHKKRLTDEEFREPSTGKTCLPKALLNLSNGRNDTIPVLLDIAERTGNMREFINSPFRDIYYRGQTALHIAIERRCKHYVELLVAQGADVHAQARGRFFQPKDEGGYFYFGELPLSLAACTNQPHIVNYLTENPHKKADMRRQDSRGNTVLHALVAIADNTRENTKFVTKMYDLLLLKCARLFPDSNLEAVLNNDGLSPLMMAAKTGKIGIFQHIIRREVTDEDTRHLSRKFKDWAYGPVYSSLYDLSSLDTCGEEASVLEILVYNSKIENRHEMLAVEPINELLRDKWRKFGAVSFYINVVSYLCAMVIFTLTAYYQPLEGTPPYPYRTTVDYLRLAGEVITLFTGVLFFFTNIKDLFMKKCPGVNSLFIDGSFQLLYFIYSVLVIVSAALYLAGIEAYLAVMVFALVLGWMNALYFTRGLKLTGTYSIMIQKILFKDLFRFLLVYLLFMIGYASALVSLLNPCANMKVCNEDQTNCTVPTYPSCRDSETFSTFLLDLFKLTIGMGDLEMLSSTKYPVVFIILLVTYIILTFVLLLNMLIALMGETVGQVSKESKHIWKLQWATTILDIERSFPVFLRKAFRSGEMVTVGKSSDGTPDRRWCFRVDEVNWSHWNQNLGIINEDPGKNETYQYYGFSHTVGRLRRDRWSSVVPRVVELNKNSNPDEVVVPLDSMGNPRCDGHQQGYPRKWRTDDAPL

As a reminder, the Ki is the equilibrium dissociation constant of an inhibitor or competing ligand from its target. By solubility is commonly meant the dissolved amount per volume that the medium holds. As for `Cc1nc(C)c(-c2csc(NC(=O)Cc3ccc(S(C)(=O)=O)cc3)n2)s1` [Compound I-17], the “Metabolism stability: remaining amount of the compound after the reaction” value in series [1] came out at 92.2%. For the same compound, the Ki in series [2] lay within 100 to 1000 nM. Also, the solubility at 16 h in series [3] was > 50 µM.
For `Cc1nc(C)c(-c2csc(NC(=O)C3CCC(F)(F)C3)n2)s1` (stereo not drawn) [Compound I-18] the same measures were 86.4%, < 100 nM and > 50 µM.

For the origin of these results see patent US20170066759A1, “AROMATIC 5-MEMBERED HETEROCYCLIC DERIVATIVE HAVING TRPV4-INHIBITING ACTIVITY” (Shionogi & Co., Ltd., priority 2012, published 2017).
